Experimental data reported in PubChem BioAssay AID1963436 (Molecular Pharmacology Branch, DTP, NCI, 2024).
Where “and” joins values, the source holds several entries; their conditions need not be identical. Identical values can stand only once.

System: OVCAR-5 complex spheroid (HUVEC/MSC), viability % T/C
Assay: Anticancer human tumor OVCAR-5 cell line growth inhibition [Asc];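 also: spheroids exposed to agents for 7 days before readout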;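 as to viability, T/C: 100% = DMSO vehicle-treated wells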
Conditions: for viability, T/C: stronger effect = lower value
Description: Multicellular complex tumor spheroid response to apoptosis pathway targeting inhibitors Alrizomadlin, Pelcitoclax, and Dasminapant in combination with a variety of drugs and investigational agents in selected tumor cell lines
The MDM2 inhibitor alrizomadlin, the Bcl-2/Bcl-xL inhibitor pelcitoclax, and the IAPs inhibitor dasminapant were evaluated both individually and in combination with standard of care and investigational anticancer small molecules within a complex spheroid model of solid tumors. . Complex spheroids include a stromal component modeled by human endothelial cells (HUVEC) and fibroblasts modeled by human mesenchymal stem cells (MSCs). The concentration ranges selected for each drug and investigational agent were based upon clinically achievable concentrations if the clinical Cmax of the agent was known.
Compounds. The drugs and investigational agents: alrizomadlin (APG-115; NSC831270), pelcitoclax (APG-1252; NSC835773), dasminapant (APG-1387;NSC834197), TAK-243 (NSC785004), copanlisib (NSC809693), olaparib (NSC753686), talazoparib (NSC767125), cobimetinib (NSC 768068), eltanexor (KPT-8602, NSC 794443), abemaciclib (NSC 768073), sotorasib (NSC818433), adagrasib (NSC 831453), MRTX-1133 (NSC 836407), Iadademestat (ORY1001, NSC 806812), and RMC-4630 (NSC839698), were obtained from the NCI Developmental Therapeutics Program Chemical Repository. The FDA-approved anticancer drug set is available from the Developmental Therapeutics Program at https://dtp.cancer.gov/organization/dscb/obtaining/available plates.htm. […] The stock solutions were prepared in dimethyl sulfoxide (DMSO, Sigma-Aldrich, St. Louis, MO, cat. D2650) at 800-fold the tested concentration and stored at -70 degrees C prior to their use. All drugs and investigational agents were tested over a range starting from a high concentration at or near the clinical Cmax and decreasing in half-log increments. If the clinical Cmax for an agent had not been determined, the highest concentration tested was 10 microM.
The patient-derived cancer (PDC) cell lines include five colon adenocarcinomas: 186277-243-T-J2-PDC, 616215-338-R-J1-PDC, 439559-082-T-J2-PDC, 463943-066-T-J2-PDC, and 519858-162-T-J1-PDC; three pancreatic carcinomas: 323965-272-R-J2-PDC, 521955-158-R6-J3-PDC, and 521955-158-R2-J5-PDC; two uterine sarcomas: 327498-152-R-J2-PDC and 993429-296-R-J1-PDC; two rhabdomyosarcomas: 755483-174-R-J1-PDC and 772245-204-R-J1-PDC; two soft tissue sarcomas: 126254-015-R-J1-PDC and 494315-158-R-J1-PDC; two malignant fibrous histiocytomas: 317291-083-R-J1-PDC and 596521-263-R-J1-PDC; two breast carcinomas: 171881-019-R-J1-PDC and 885512-296-R-J2-PDC; and one ovarian carcinoma: 6556581-035-R-J-PDC were obtained from the NCI PDMR, (https://pdmr.cancer.gov). The established cell lines HSSY-2 synovial sarcoma (RRID:CVCL 8719), SYO-1 synovial sarcoma (RRID:CVCL_7146), MPNST malignant peripheral neural sheath tumor were obtained from the Sloan Kettering Institute. The following established cell lines were purchased from the American Type Culture Collection (ATCC, Manassas, VA), Sor the received from the NCI repository:, PANC-1 pancreatic carcinoma (CRL-1469, RRID:CVCL_0480), OVCAR-5 ovarian carcinoma (RRID:CVCL_1628), OVCAR-8 ovarian carcinoma (RRID:CVCL_1629), , MCF-7 breast carcinoma (CRL-12584, RRID:CVCL_0031), MDA-MB-231 breast carcinoma (CRL-12532, RRID:CVCL_0062), NCI-H1876 small cell lung carcinoma (CRL-5902, RRID:CVCL_1503), NCI-H510A small cell lung carcinoma (HTB-184, RRID:CVCL_1565), NCI-H1417 (CRL-5869, RRID:CVCL_1469), and NCI-H196 small cell lung carcinoma (CRL-5823, RRID:CVCL_1509). Dr. Peter Houghton (Greehey Children's Cancer Research Institute, University of Texas Health Science Center, San Antonio, TX) provided Rh-18 rhabdomyosarcoma (RRID:CVCL_1659). Pooled donor human umbilical vein endothelial cells (HUVEC, Lonza, cat. CC-2519) and human mesenchymal stem cells (hMSC, Lonza, cat. PT-2501) were purchased from Lonza (Walkersville, MD).
Cell Culture. […]

SMILES | viability, T/C (compound 0.316 µM) | viability, T/C (compound 1 µM) | IC50 (curve of compound) | viability, T/C (compound 0.00316 µM) | viability, T/C (compound 0.01 µM) | viability, T/C (compound 0.0316 µM) | viability, T/C (compound 0.1 µM) | other results
Cc1c(S(C)(=O)=O)c(-c2cc(F)cc(N3CCN(c4ccc(NS(=O)(=O)c5ccc(NC(CCN6CCC(C(=O)OCCCP(=O)(O)O)CC6)CSc6ccccc6)c(S(=O)(=O)C(F)(F)F)c5)cc4)CC3)c2)c(-c2ccc(Cl)cc2)n1C(C)C (stereo unspecified) | 92.2% [middle of 14 runs] | 90.3% [middle of 14 runs] | – | – | – | – | – | viability, T/C (compound 3.16 µM): 88.8% [middle of 13 runs]; IC50 (compound alone, run of 09/27/2022): > 10 µM
Cc1nc(N2CCC3(CC2)COC(C)C3N)c(CO)nc1Sc1ccnc(N)c1Cl (stereo unspecified) | – | – | > 3 µM | – | – | – | – | viability, T/C (compound 0.00949 µM): 109% and 97.2% and 107%; viability, T/C (compound 0.03 µM): 99.2% and 97.7% and 99.4%; viability, T/C (compound 0.0949 µM): 84.9% and 85.5% and 83.2%; viability, T/C (compound 0.3 µM): 84.3% and 72.2% and 87.1%; viability, T/C (compound 0.949 µM): 77.6% and 64.7% and 77.7%; viability, T/C (compound 3 µM): 62% and 60.2% and 56.3%
Cn1ncnc1[C@H]1c2n[nH]c(=O)c3cc(F)cc(c23)N[C@@H]1c1ccc(F)cc1 | – | – | > 0.1 µM | 99.5% and 95.4% and 93.1% | 90.6% and 93.5% and 96.7% | 92.8% and 92.5% and 90.8% | 91.8% and 88.3% and 93.8% | viability, T/C (compound 0.000316 µM): 104% and 94.5% and 106%; viability, T/C (compound 0.001 µM): 108% (2×) and 101%
NC(=O)C(=Cn1cnc(-c2cc(C(F)(F)F)cc(C(F)(F)F)c2)n1)c1cncnc1 | – | – | 0.265 µM and 0.212 µM and > 0.3 µM | – | – | – | – | viability, T/C (compound 0.000949 µM): 102% and 107% and 95.8%; viability, T/C (compound 0.003 µM): 105% and 93.1% and 99.5%; viability, T/C (compound 0.00949 µM): 88.8% and 83.2% and 86.8%; viability, T/C (compound 0.03 µM): 89.3% and 78.8% and 86%; viability, T/C (compound 0.0949 µM): 78.5% and 71.5% and 81.5%; viability, T/C (compound 0.3 µM): 45.6% and 40.4% and 54.9%
NC1CCC(NC2CC2c2ccccc2)CC1 (stereo unspecified) | – | – | > 0.1 µM | 89.8% and 82% and 93.5% | 90.4% and 90% and 91.2% | 105% and 93.5% and 87% | 90.1% and 91.9% and 91.5% | viability, T/C (compound 0.000316 µM): 97.1% and 101% and 95.9%; viability, T/C (compound 0.001 µM): 97.4% and 108% and 97%
O=C(c1cc(Cc2n[nH]c(=O)c3ccccc23)ccc1F)N1CCN(C(=O)C2CC2)CC1 | 92.3% and 94.9% and 95% | 96% and 91.9% and 93.1% | > 10 µM | – | – | 106% and 108% and 101% | 98.9% and 98.3% and 106% | viability, T/C (compound 3.16 µM): 93.5% and 97.9% and 94.9%; viability, T/C (compound 10 µM): 76.2% and 81% and 83.6%
O=C(c1ccc(F)c(F)c1Nc1ccc(I)cc1F)N1CC(O)([C@@H]2CCCCN2)C1 | 44.4% and 51% and 47.7% | 30.7% and 36% and 33.2% | 0.134 µM and 0.265 µM and 0.103 µM | 97.8% and 97.6% and 103% | 96.5% and 97.5% and 102% | 69.4% and 74.8% and 72.2% | 53% and 61.5% and 50.5% | –
